US9029377B2, “Platelet-activating factor receptor antagonists” (Merck Sharp & Dohme Corp., priority 2009, dated 2015)

What follows are compounds tested against PAFR (Homo sapiens, UniProt P25105) (assay: PAF Binding Assay (PAFR binding)).
Chain of PAFR (P25105 whole entry): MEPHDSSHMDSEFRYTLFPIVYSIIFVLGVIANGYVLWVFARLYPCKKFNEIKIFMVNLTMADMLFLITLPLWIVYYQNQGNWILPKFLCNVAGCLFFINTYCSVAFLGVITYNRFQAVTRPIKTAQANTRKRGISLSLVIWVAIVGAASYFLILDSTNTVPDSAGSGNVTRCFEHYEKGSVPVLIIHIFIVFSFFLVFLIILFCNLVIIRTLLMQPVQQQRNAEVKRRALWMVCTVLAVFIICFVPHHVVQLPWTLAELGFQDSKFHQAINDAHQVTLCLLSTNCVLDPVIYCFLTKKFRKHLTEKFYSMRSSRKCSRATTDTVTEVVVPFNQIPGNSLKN

Compared with O=S(=O)(N[C@H]1CCC[C@@H](n2cnnc2)C1)c1c(C2CC2)cc(-c2noc(C3CC3)n2)cc1C1CC1 [Compound 2Ra, 2,6-dicyclopropyl-4-(5-cyclopropyl-1,2,4-oxadiazol-3-yl)-N-[(1S,3R)-3-(4H-1,2,4-triazol-4-yl)cyclohexyl]benzenesulfonamide], O=S(=O)(N[C@H]1CCC[C@@H](n2cnnc2)C1)c1cc(Br)cc(C(F)(F)F)c1 [Compound 2Mi, 3-bromo-N-[(1S,3R)-3-(4H-1,2,4-triazol-4-yl)cyclohexyl]-5-(trifluoromethyl)benzenesulfonamide] is 69-fold higher in IC50: 2.4 nM for the first, 165 nM for the second.

First: O=S(=O)(N[C@H]1CCC[C@@H](n2cnnc2)C1)c1cc(-c2ccc(C(F)(F)F)cc2)cc(C(F)(F)F)c1 [Compound 3Al, N-[(1S,3R)-3-(4H-1,2,4-triazol-4-yl)cyclohexyl]-4′,5-bis(trifluoromethyl)biphenyl-3-sulfonamide]
Second: O=S(=O)(N[C@H]1CCC[C@@H](n2cnnc2)C1)c1c(F)cc(-c2noc(C3CCC3)n2)cc1C1CC1 [Compound 2Sb, 4-(5-cyclobutyl-1,2,4-oxadiazol-3-yl)-2-cyclopropyl-6-fluoro-N-[(1S,3R)-3-(4H-1,2,4-triazol-4-yl)cyclohexyl]benzenesulfonamide]
The IC50 of the first is 3.1-fold higher: 8.1 nM for the first, 2.6 nM for the second.

First: Cc1nncn1[C@@H]1CCC[C@H](NS(=O)(=O)c2ccc(OCCCCF)c(F)c2)C1 [Compound 2Fi, 3-fluoro-4-(4-fluorobutoxy)-N-[(1S,3R)-3-(3-methyl-4H-1,2,4-triazol-4-yl)cyclohexyl]benzenesulfonamide]
Second: O=S(=O)(N[C@H]1CCC[C@@H](n2cnnc2)C1)c1cc(-c2cc(Cl)cn3cc(CCl)nc23)cc(C(F)(F)F)c1 [Compound 3Aav, 3-[6-chloro-2-(chloromethyl)imidazo[1,2-a]pyridin-8-yl]-N-[(1S,3R)-3-(4H-1,2,4-triazol-4-yl)cyclohexyl]-5-(trifluoromethyl)benzenesulfonamide]
The IC50 of the first is 2.3-fold lower: 9.7 nM for the first, 22 nM for the second. The first is the more potent here.

O=S(=O)(N[C@H]1CCC[C@@H](n2cnnc2)C1)c1cc(-c2ccnc(F)c2)cc(C(F)(F)F)c1 [Compound 3Av, 3-(2-fluoropyridin-4-yl)-N-[(1S,3R)-3-(4H-1,2,4-triazol-4-yl)cyclohexyl]-5-(trifluoromethyl)benzenesulfonamide] and CCCCCc1ccc(S(=O)(=O)N[C@H]2CCC[C@@H](n3cnnc3)C2)cc1 [Compound 2Mah, 4-pentyl-N-[(1S,3R)-3-(4H-1,2,4-triazol-4-yl)cyclohexyl]benzenesulfonamide] are within 1.5-fold of each other in IC50: 15 nM for the first, 13 nM for the second.

First: O=S(=O)(N[C@H]1CCC[C@@H](n2cnnc2)C1)c1cc(-c2ccsc2)cc(C(F)(F)F)c1 [Compound 3Aar, 3-(3-thienyl)-N-[(1S,3R)-3-(4H-1,2,4-triazol-4-yl)cyclohexyl]-5-(trifluoromethyl)benzenesulfonamide]
Second: CCc1cc(-c2ccc3c(c2)OCO3)ccc1S(=O)(=O)N[C@H]1CCC[C@@H](n2cnnc2)C1 [Compound 2Ax, 4-(1,3-benzodioxol-5-yl)-2-ethyl-N-[(1S,3R)-3-(4H-1,2,4-triazol-4-yl)cyclohexyl]benzenesulfonamide]
The IC50 of the first is 4.1-fold lower: 9.2 nM for the first, 38 nM for the second.

Going from Cc1nncn1[C@H]1C[C@@H](NS(=O)(=O)c2ccc(-c3ccc(OC(F)(F)F)cc3)c(F)c2)CC(F)(F)C1 [Compound 2Ha, N-[(1R,5S)-3,3-difluoro-5-(3-methyl-4H-1,2,4-triazol-4-yl)cyclohexyl]-2-fluoro-4′-(trifluoromethoxy)biphenyl-4-sulfonamide] to Cc1nncn1[C@H]1C[C@@H](NS(=O)(=O)c2ccc(OCCCCF)c(F)c2)CC(F)(F)C1 [Compound 2Hi, N-[(1R,5S)-3,3-difluoro-5-(3-methyl-4H-1,2,4-triazol-4-yl)cyclohexyl]-3-fluoro-4-(4-fluorobutoxy)benzenesulfonamide], the IC50 rises from 1.4 nM to 6.8 nM (4.9-fold).

Compared with Cc1nncn1[C@@H]1CCC[C@H](NS(=O)(=O)c2ccc(-c3ccc(OCC(F)(F)F)cc3)c(F)c2)C1 [Compound 2Fb, 2-fluoro-N-[(1S,3R)-3-(3-methyl-4H-1,2,4-triazol-4-yl)cyclohexyl]-4′-(2,2,2-trifluoroethoxy)biphenyl-4-sulfonamide], O=S(=O)(N[C@H]1CCC[C@@H](n2cnnc2)C1)c1cc(-c2cccc(F)n2)cc(C(F)(F)F)c1 [Compound 3Ax, 3-(6-fluoropyridin-2-yl)-N-[(1S,3R)-3-(4H-1,2,4-triazol-4-yl)cyclohexyl]-5-(trifluoromethyl)benzenesulfonamide] is 5.7-fold higher in IC50: 0.8 nM for the first, 4.6 nM for the second.

CC(C)Oc1ccc(-c2ccc(S(=O)(=O)N[C@@H]3C[C@H](n4cnnc4)CC(F)(F)C3)cc2F)cc1 [Compound 2Gd, N-[(1R,5S)-3,3-difluoro-5-(4H-1,2,4-triazol-4-yl)cyclohexyl]-2-fluoro-4′-isopropoxybiphenyl-4-sulfonamide] and CCc1cc(-c2noc(C3CC3)n2)ccc1S(=O)(=O)N[C@H]1CCC[C@@H](n2cnnc2C(F)(F)F)C1 [Compound 2Aa, 4-(5-cyclopropyl-1,2,4-oxadiazol-3-yl)-2-ethyl-N-{(1S,3R)-3-[3-(trifluoromethyl)-4H-1,2,4-triazol-4-yl]cyclohexyl}benzenesulfonamide] are within 1.5-fold of each other in IC50: 7.2 nM for the first, 5.5 nM for the second.

Compared with COc1ncccc1-c1cc(C(F)(F)F)cc(S(=O)(=O)N[C@H]2CCC[C@@H](n3cnnc3)C2)c1 [Compound 3Ag, 3-(2-methoxypyridin-3-yl)-N-[(1S,3R)-3-(4H-1,2,4-triazol-4-yl)cyclohexyl]-5-(trifluoromethyl)benzenesulfonamide], CCc1cc([N+](=O)[O-])ccc1S(=O)(=O)N[C@H]1CCC[C@@H](n2cnnc2)C1 [Compound 2Ae, 2-ethyl-4-nitro-N-[(1S,3R)-3-(4H-1,2,4-triazol-4-yl)cyclohexyl]benzenesulfonamide] is 85-fold higher in IC50: 4.5 nM for the first, 381 nM for the second. The first is the more potent here.

First: CCCCOc1ccc(S(=O)(=O)N[C@H]2CCC[C@@H](n3cnnc3C3CC3)C2)cc1 [Compound 2Ow, 4-butoxy-N-[(1S,3R)-3-(3-cyclopropyl-4H-1,2,4-triazol-4-yl)cyclohexyl]benzenesulfonamide]
Second: Cc1nncn1[C@@H]1CCC[C@H](NS(=O)(=O)c2ccc(C(C)(C)C)cc2)C1 [Compound 2Np, 4-tert-butyl-N-[(1S,3R)-3-(3-methyl-4H-1,2,4-triazol-4-yl)cyclohexyl]benzenesulfonamide]
The IC50 of the first is 12-fold lower: 4.1 nM for the first, 51 nM for the second. The first is the more potent here.

Going from “3-(2-cyclopropylpyrimidin-4-yl)-N-[(1R,5S)-3,3-difluoro-5-(3-methyl-4H-1,2,4-triazol-4-yl)cyclohexyl]-5-(trifluoromethyl)benzenesulfonamide [Compound 9Aa]” to O=S(=O)(N[C@H]1CCC[C@@H](n2cnnc2)C1)c1cc(-c2ccccc2OC(F)(F)F)cc(C(F)(F)F)c1 [Compound 3Am, N-[(1S,3R)-3-(4H-1,2,4-triazol-4-yl)cyclohexyl]-2′-(trifluoromethoxy)-5-(trifluoromethyl)biphenyl-3-sulfonamide], the IC50 rises from 2.2 nM to 4.9 nM (2.2-fold). The first is the more potent here.

First: O=S(=O)(N[C@H]1CCC[C@@H](n2cnnc2)C1)c1ccc(OCCCC(F)(F)F)cc1 [Compound 2Mac, N-[(1S,3R)-3-(4H-1,2,4-triazol-4-yl)cyclohexyl]-4-(4,4,4-trifluorobutoxy)benzenesulfonamide]
Second: 3-bromo-N-[(1S,3R)-3-(4H-1,2,4-triazol-4-yl)cyclohexyl]-5-(trifluoromethyl)benzenesulfonamide [Compound 3b]
The IC50 of the first is 9.2-fold higher: 8.3 nM for the first, 0.9 nM for the second. The second is the more potent here.
